Measurements from ChEMBL document CHEMBL1148513, “Synthetic studies of neoclerodane diterpenes from Salvia divinorum: selective modification of the furan ring” (Bioorg Med Chem Lett, 2006).

Columns and labels:
Mu-type opioid receptor = Mu-type opioid receptor (Homo sapiens, UniProt P35372); assay: Displacement of [125I]IOXY from human mu opioid receptor
[1] = target: T1, Kappa-type opioid receptor (Homo sapiens, UniProt P41145); assay: Agonist activity at human kappa opioid receptor stably transfected in CHO cells by [35S]GTPgammaS assay relative to (-)-U50488; assay type: functional, cell-based
[2] = target: T1, Kappa-type opioid receptor; assay: Agonist activity at human kappa opioid receptor stably transfected in CHO cells by [35S]GTP-gamma-S assay; assay type: functional, cell-based
[3] = target: T1, Kappa-type opioid receptor; assay: Displacement of [125I]IOXY from human kappa opioid receptor
[4] = target: Delta-type opioid receptor (Homo sapiens, UniProt P41143); assay: Displacement of [125I]IOXY from human delta opioid receptor
Sequence of Delta-type opioid receptor (P41143 whole entry): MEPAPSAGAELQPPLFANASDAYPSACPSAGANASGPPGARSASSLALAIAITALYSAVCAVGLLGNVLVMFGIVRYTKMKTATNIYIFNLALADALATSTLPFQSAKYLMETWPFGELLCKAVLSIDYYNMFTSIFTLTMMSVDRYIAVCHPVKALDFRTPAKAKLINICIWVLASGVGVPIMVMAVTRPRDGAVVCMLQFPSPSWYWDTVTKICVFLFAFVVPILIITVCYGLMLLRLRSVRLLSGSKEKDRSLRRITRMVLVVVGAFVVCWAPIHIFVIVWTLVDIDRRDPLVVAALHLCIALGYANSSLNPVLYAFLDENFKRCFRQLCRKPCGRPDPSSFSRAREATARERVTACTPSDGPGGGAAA

T1 sequence (P41145 whole entry): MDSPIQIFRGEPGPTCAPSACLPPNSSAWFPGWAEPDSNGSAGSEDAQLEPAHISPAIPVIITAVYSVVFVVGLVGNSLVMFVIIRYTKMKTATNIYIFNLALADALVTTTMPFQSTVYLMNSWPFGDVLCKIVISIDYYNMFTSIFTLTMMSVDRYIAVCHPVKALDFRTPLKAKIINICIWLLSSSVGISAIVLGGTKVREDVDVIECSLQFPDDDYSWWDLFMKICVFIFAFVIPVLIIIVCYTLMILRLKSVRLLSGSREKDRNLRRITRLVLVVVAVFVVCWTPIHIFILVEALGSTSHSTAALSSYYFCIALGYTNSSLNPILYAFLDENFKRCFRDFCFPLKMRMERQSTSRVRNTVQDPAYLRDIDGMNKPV
Sequence of Mu-type opioid receptor (P35372 whole entry): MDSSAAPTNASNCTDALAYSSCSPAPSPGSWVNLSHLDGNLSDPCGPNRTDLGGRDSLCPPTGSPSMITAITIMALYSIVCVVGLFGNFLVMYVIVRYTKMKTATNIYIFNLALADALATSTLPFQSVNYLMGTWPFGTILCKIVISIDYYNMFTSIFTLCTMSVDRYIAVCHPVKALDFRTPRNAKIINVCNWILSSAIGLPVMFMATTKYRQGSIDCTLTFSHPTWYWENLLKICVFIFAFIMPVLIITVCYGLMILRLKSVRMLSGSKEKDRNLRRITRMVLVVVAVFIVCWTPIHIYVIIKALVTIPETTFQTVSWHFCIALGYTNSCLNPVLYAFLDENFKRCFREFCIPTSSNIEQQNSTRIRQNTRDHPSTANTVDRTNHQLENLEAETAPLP

COC(=O)[C@@H]1C[C@H](OC(C)=O)C(=O)[C@H]2[C@@]1(C)CC[C@H]1C(=O)O[C@H](c3ccn(S(=O)(=O)c4ccccc4)c3)C[C@]21C
Ki (Mu-type opioid receptor): > 10 µM | Emax [1]: 60% | ED50 [2]: 9.16 µM | Ki [3]: 0.41 µM | Ki [4]: > 10 µM

COC(=O)c1coc([C@@H]2C[C@]3(C)[C@H]4C(=O)[C@@H](OC(C)=O)C[C@@H](C(=O)OC)[C@]4(C)CC[C@H]3C(=O)O2)n1
Ki (Mu-type opioid receptor): > 10 µM | Ki [3]: 8.53 µM | Ki [4]: > 10 µM

COC(=O)[C@@H]1C[C@H](OC(C)=O)C(=O)[C@H]2[C@@]1(C)CC[C@H]1C(=O)O[C@H](c3ccn(S(=O)(=O)c4ccc(OC)cc4)c3)C[C@]21C
Ki (Mu-type opioid receptor): > 10 µM | Emax [1]: 60% | ED50 [2]: 15.2 µM | Ki [3]: 1.62 µM | Ki [4]: > 10 µM

COC(=O)[C@@H]1C[C@H](OC(C)=O)C(=O)[C@H]2[C@@]1(C)CC[C@H]1C(=O)O[C@H](c3ccn(S(C)(=O)=O)c3)C[C@]21C
Ki (Mu-type opioid receptor): > 10 µM | Emax [1]: 70% | ED50 [2]: 3.6 µM | Ki [3]: 0.84 µM | Ki [4]: > 10 µM
